Test results published in patent publication US5663297A, “Antithrombic peptides” (Hoffmann-La Roche Inc., priority 1989, dated 1997).
*1 amine or outer side, *2 acyl side, *3 side chain or, on linkers, in order; H or OH if unused. Where a SMILES comes first, the peptide text is derived from it. [ ]: non-standard residue; d: D form. The star is where a group is joined. X1 = O=C(NCCN(CC(=O)[*:2])[*:1])OCc1ccccc1; 1Nal = N[C@@H](Cc1cccc2ccccc12)C(=O)O; Gly(N-2-aminoethyl) = NCCNCC(=O)O; Cbz = O=C(OCc1ccccc1)*

These molecules were tested against T1, fibrinogen receptor, glycoprotein IIb/IIIa (Homo sapiens, UniProt P05106+P08514) (assay: Inhibition of fibrinogen binding to immobilized glycoprotein IIb/IIIa (ELISA)). Details: concentration required to inhibit binding of fibrinogen to the immobilized receptor from human blood platelets by 50%.
T1 construct: from tissue
Description: The glycoprotein IIb/IIIa is obtained-from Triton X-100 extracts of human blood platelets and purified by lectin affinity chromatography (Analytical Biochemistry 151, 1985, 169-177) and chromatography on an Arg-Gly-Asp-Ser affinity column (Science 231, 1986, 1559-62). The thus-obtained receptor protein is bonded to microtitre plates. The specific binding of fibrinogen to the immobilized receptor is determined with the aid of an ELISA system ("enzyme-linked immunosorbent assay"). The IC50 values hereinafter correspond to that concentration of the test substance which is required to inhibit the binding of fibrinogen to the immobilized receptor by 50%: […]

T1 sequence (P08514 32-887 limits assumed): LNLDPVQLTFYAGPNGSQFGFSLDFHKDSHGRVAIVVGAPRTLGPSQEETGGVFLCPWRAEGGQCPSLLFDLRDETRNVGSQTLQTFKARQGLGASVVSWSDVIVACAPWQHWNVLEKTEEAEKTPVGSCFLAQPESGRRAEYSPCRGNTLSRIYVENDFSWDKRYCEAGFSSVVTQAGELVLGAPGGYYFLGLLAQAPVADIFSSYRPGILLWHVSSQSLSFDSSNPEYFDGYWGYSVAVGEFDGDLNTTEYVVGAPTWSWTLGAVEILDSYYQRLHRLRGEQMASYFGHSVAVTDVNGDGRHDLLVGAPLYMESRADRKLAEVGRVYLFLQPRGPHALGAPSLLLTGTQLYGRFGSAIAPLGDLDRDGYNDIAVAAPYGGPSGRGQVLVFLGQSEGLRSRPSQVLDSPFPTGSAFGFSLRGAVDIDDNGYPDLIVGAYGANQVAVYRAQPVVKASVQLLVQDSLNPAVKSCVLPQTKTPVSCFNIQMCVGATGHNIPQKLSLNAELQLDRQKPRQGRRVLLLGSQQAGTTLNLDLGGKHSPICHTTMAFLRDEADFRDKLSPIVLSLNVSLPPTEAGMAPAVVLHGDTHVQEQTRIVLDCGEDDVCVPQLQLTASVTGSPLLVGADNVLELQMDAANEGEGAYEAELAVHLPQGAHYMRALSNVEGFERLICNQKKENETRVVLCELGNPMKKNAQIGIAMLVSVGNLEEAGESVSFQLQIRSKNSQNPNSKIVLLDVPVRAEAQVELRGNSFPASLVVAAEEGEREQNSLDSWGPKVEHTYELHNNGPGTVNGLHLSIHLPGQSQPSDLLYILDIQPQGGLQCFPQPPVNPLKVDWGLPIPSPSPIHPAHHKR
T1 sequence (P08514 891-1039 partner limits assumed): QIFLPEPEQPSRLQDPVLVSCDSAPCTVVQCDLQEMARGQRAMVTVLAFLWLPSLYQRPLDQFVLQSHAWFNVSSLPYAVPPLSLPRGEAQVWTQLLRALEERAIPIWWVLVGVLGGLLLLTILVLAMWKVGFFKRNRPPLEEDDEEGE
T1 sequence (P05106 27-788): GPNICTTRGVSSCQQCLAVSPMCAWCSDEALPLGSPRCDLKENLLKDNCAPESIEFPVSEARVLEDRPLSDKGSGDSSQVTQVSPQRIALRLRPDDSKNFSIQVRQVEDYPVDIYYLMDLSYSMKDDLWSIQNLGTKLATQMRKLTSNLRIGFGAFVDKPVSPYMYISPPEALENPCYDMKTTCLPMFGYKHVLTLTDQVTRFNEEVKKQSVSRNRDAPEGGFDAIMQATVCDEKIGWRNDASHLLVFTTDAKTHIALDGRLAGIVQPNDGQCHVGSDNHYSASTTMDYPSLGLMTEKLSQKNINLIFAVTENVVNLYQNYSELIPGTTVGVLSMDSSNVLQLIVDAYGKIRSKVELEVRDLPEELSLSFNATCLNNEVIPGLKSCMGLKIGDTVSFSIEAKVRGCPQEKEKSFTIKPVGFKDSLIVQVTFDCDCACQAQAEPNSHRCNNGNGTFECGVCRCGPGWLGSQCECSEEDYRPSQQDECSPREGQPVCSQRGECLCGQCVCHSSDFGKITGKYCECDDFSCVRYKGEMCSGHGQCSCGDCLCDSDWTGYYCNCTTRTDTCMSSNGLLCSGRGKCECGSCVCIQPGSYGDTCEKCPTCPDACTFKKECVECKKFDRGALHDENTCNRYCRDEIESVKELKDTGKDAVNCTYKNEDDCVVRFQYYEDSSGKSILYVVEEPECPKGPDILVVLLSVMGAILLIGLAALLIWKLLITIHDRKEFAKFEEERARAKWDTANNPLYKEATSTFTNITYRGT

Row | Structure (SMILES) | IC50
1 | CC(C)[C@H](NC(=O)[C@H](CC(=O)O)NC(=O)CNC(=O)C(Cc1ccc(NC(=N)N)cc1)NC(=O)OC(C)(C)C)C(=O)O (mixture of isomers) [Example 15, [N-Boc-3-(p-guanidinophenyl)-DL-alanyl]-Gly-Asp-Val-OH] | 80 nM
2 | CC(=N)NCCCC[C@H](NC(=O)OC(C)(C)C)C(=O)NCC(=O)N[C@@H](CC(=O)O)C(=O)N[C@H](C(=O)O)C(C)C [Example 12, [N2-Boc-N6 -(1-iminoethyl)-L-lysyl]Gly-Asp-Val- -OH] | 110 nM
3 | CC[C@H](C)[C@H](NC(=O)[C@H](CC(=O)O)NC(=O)CNC(=O)[C@H](CCCNC(=N)N)NC(=O)CNCCN)C(=O)O [Example 11, Aeg Arg- Gly-Asp-Ile-OH] (H-[Gly(N-2-aminoethyl)]RGDI-OH) | 120 nM
4 | CC(C)[C@H](NC(=O)[C@H](CC(=O)O)NC(=O)CNC(=O)[C@H](CCCNC1=NC2(O)CCCCC2(O)N1)NC(=O)OC(C)(C)C)C(=O)O (stereo partly drawn) [Example 14, [N2-Boc-N5-(3a,4,5,6,7,7a-hexahydro-3a,7a-dihydroxy-1H-benzimidazol-2-yl)- L-ornithyl]-Gly-Asp-Val-OH] | 54 nM
5 | CC(C)[C@H](NC(=O)[C@H](CC(=O)O)NC(=O)CNC(=O)CCc1ccc(C(=N)N)cc1)C(=O)O [Example 24, (p-amidinohydrocinnamoyl)-Gly-Asp-Val-OH] | 35 nM
6 | CC(C)[C@H](NC(=O)[C@H](CC(=O)O)NC(=O)CNC(=O)[C@@H](N)Cc1ccc(C(=N)N)cc1)C(=O)O [Example 25, [3-(p-amidinophenyl)-L-alanyl]-Gly-Asp-Val-OH] | 23 nM
7 | CC(C)[C@H](NC(=O)[C@H](CC(=O)O)NC(=O)CNC(=O)[C@H](N)Cc1ccc(C(=N)N)cc1)C(=O)O [Example 20, [3-(p-amidinophenyl)-D-alanyl]-Gly-Asp-Val-OH] | 22 nM
8 | N=C(N)NCCC[C@H](NC(=O)CNCCN)C(=O)NCC(=O)N[C@@H](CC(=O)O)C(=O)N[C@@H](Cc1cccc2ccccc12)C(=O)O [Example 10, N-Aeg-Arg-Gly-Asp-Nal(1)-OH] (H-[Gly(N-2-aminoethyl)]RGD[1Nal]-OH) | 38 nM
9 | CC(C)[C@H](NC(=O)[C@H](CC(=O)O)NC(=O)CNC(=O)CCc1ccc(CN)cc1)C(=O)O [Example 23, (p-aminomethylhydrocinnamoyl)-Gly-Asp-Val-OH] | 210 nM
10 | CC(C)[C@H](NC(=O)[C@H](CC(=O)O)NC(=O)CNC(=O)[C@H](CCCNC(=N)N)NC(=O)CN(CCNC(=O)OCc1ccccc1)C(=O)OCc1ccccc1)C(=O)O [Example 6, Z-Aeg(Z)-Arg-Gly-Asp-Val-OH] (Cbz-[X1]RGDV-OH) | 150 nM
11 | CC(C)[C@H](NC(=O)[C@H](CC(=O)O)NC(=O)CNC(=O)[C@H](CCCNC(=N)N)NC(=O)CNCCN)C(=O)O [Example 7, Aeg-Arg-Gly-Asp-Val-OH] (H-[Gly(N-2-aminoethyl)]RGDV-OH) | 90 nM
12 | N=C(N)c1ccc(CCC(=O)NCC(=O)N[C@@H](CC(=O)O)C(=O)N[C@@H](Cc2cccc3ccccc23)C(=O)O)cc1 [Example 19, (p-amidinohydrocinnamoyl)-Gly Asp-Nal(1)-OH] | 11 nM
13 | CC(C)[C@H](NC(=O)[C@H](CC(=O)O)NC(=O)CNC(=O)COc1ccc(C(=N)N)cc1)C(=O)O [Example 26, (p-amidinophenoxy)acetyl-Gly-Asp Val-OH] | 5 nM
14 | [N-]=[N+]=Nc1ccccc1C(=O)N[C@@H](CCCNC(=N)N)C(=O)NCC(=O)N[C@@H](CC(=O)O)C(=O)Nc1ccccc1C(=O)O [Example 13, N-[(o-azidobenzoyl)-Arg-Gly-Asp]-anthranilic acid] | 110 nM
15 | N=C(N)NCCC[C@H](NC(=O)CNCCN)C(=O)NCC(=O)N[C@@H](CC(=O)O)C(=O)N[C@@H](CO)C(=O)O [Example 8, Aeg-Arg-Gly-Asp-Ser-OH] | 110 nM
16 | CC(C)[C@H](NC(=O)[C@H](CC(=O)O)NC(=O)CNC(=O)Cc1ccc(C(=N)N)cc1)C(=O)O [Example 27, (p-amidinophenyl)acetyl-Gly-Asp-Val-OH] | 1.9 nM
17 | CC(C)[C@H](NC(=O)[C@H](CC(=O)O)NC(=O)CNC(=O)C(Cc1ccc(C(=N)N)cc1)NC(=O)OC(C)(C)C)C(=O)O (mixture of isomers) [Example 17, [N-Boc-3-(p-amidinophenyl)-DL-alanyl]-Gly-Asp-Val-OH] | 16 nM
18 | CC(C)[C@H](NC(=O)[C@H](CC(=O)O)NC(=O)CNC(=O)C(N)Cc1ccc(C(=N)N)cc1)C(=O)O (mixture of isomers) [Example 2, [3-(p-amidinophenyl)-DL-alanyl]-Gly-Asp-Val-OH] | 16 nM
19 | N=C(N)c1ccc(CC(N)C(=O)NCC(=O)N[C@@H](CC(=O)O)C(=O)N[C@@H](Cc2cccc3ccccc23)C(=O)O)cc1 (mixture of isomers) [Example 16, [3-(p-amidinophenyl)-DL-alanyl]-Gly-Asp-Nal(1)-OH] | 22 nM

These molecules were tested on mouse (assay: Acute toxicity, intravenous, mouse). Details: intravenously in the mouse.
Format: in vivo
Description: The compounds of formula I have a low toxicity. Thus the product of Example 2 has a LD50 of 600 mg/kg intravenously in the mouse.

Row | Structure (SMILES) | LD50
20 | CC(C)[C@H](NC(=O)[C@H](CC(=O)O)NC(=O)CNC(=O)C(N)Cc1ccc(C(=N)N)cc1)C(=O)O (mixture of isomers) [Example 2, [3-(p-amidinophenyl)-DL-alanyl]-Gly-Asp-Val-OH] | 600 mg/kg
